The source of these data is patent US9326986B2, “Quinazolinone, quinolone and related analogs as sirtuin modulators” (GLAXOSMITHKLINE LLC, priority 2008, dated 2016).

The target in the experiment is T1, SIRT1 (Homo sapiens, UniProt Q96EB6).
T1 sequence (Q96EB6 1-747): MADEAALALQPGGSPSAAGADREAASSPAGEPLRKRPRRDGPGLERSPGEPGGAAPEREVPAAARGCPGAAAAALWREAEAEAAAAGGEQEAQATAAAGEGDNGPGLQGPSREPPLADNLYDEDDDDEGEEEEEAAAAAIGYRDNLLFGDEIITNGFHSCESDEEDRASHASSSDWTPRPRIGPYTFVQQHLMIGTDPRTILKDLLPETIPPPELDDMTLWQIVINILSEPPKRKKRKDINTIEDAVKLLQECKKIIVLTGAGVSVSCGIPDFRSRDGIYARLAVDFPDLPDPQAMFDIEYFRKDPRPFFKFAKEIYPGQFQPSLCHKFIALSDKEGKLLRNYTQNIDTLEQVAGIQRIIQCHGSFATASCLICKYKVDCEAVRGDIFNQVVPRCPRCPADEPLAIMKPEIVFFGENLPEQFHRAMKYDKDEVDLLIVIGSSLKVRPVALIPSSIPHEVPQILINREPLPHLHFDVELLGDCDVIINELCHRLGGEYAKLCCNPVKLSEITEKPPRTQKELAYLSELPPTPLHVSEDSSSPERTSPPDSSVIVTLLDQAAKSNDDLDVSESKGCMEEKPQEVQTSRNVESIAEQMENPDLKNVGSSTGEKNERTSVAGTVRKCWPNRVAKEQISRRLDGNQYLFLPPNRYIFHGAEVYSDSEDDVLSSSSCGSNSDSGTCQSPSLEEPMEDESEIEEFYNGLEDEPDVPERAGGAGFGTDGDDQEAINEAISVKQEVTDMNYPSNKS
Description: Mass spectrometry based assay to identify modulators of SIRT1 activity (deacetylation of p53-based acetylated peptide). In kind it is biochemical. To be noted: 10 nM SIRT1, 0.5 μM peptide substrate, 120 μM βNAD+, 25 minutes at 25° C.; for EC1.5 μM: SIRT1 activation.

In the case of `O=C(Nc1cnccn1)c1cccc2c(=O)cc(-c3cccc(C(F)F)c3)[nH]c12` [Compound 432], the “% Fold Act. (percent maximum fold activation)” value is given as “A (Fold activation>200%)” and the “EC1.5 μM” value was “A (EC1.5<1.0 μM)”.
The like results for `O=C(Nc1ccncc1)c1cccc2c(=O)cc(-c3cccc(C(F)(F)F)c3)[nH]c12` [Compound 402] were, in that order, “A (Fold activation>200%)” and “A (EC1.5<1.0 μM)”.
The like results for `Cc1cc(NC(=O)c2cccc3c(=O)n(C)c(-c4cccc(C(F)(F)F)c4)nc23)sn1` [Compound 296] were, in that order, “B (Fold Activation<200%)” and “B (EC1.5 1-25 μM)”.
The like results for `Cn1c(-c2cccc(C(F)(F)F)c2)nc2c(C(=O)Nc3cccc(CN4CCCC4)n3)cccc2c1=O` [Compound 351] were, in that order, “A (Fold activation>200%)” and “A (EC1.5<1.0 μM)”.
As for `Cn1c(-c2cccc(C(F)(F)F)c2)nc2c(C(=O)Nc3ccc(CN4CC[C@H](F)C4)cn3)cccc2c1=O` [Compound 346], the “% Fold Act. (percent maximum fold activation)” value was “A (Fold activation>200%)” and the “EC1.5 μM” value is given as “A (EC1.5<1.0 μM)”.
For the molecule `O=C(Nc1cccnc1)c1cccc2c(=O)cc(-c3cccc(OC(F)F)c3)[nH]c12` [Compound 443], the “% Fold Act. (percent maximum fold activation)” value is given as “A (Fold activation>200%)” and the “EC1.5 μM” value is given as “A (EC1.5<1.0 μM)”.
For `Cn1c(-c2ccncc2)nc2c(C(=O)Nc3ccccn3)cccc2c1=O` [Compound 223] the same measures were “B (Fold Activation<200%)” and “C (EC1.5>25 μM)”.
`Cn1c(-c2cccc(C(F)(F)F)c2)nc2c(C(=O)Nc3cccc(CN4CCOCC4)n3)cccc2c1=O` [Compound 344]: the “% Fold Act. (percent maximum fold activation)” value is reported as “A (Fold activation>200%)” and the “EC1.5 μM” value is recorded as “A (EC1.5<1.0 μM)”.
For `O=C(Nc1nccs1)c1cncc2c(=O)cc(-c3cccc(C(F)(F)F)c3)[nH]c12` [Compound 449, 4-oxo-N-(thiazol-2-yl)-2-(3-(trifluoromethyl)phenyl)-1,4-dihydro-1,6-naphthyridine-8-carboxamide] the same measures were “A (Fold activation>200%)” and “A (EC1.5<1.0 μM)”.
On to `O=C(Nc1cccc2c(=O)cc(-c3cccc(C(F)(F)F)c3)[nH]c12)c1cccc(F)n1` [Compound 424], for which the “% Fold Act. (percent maximum fold activation)” value is “A (Fold activation>200%)” and the “EC1.5 μM” value is reported as “A (EC1.5<1.0 μM)”.
Regarding `O=C(Nc1ccccn1)c1cccc2c(=O)[nH]c(-c3cccc(OC(F)F)c3)nc12` [Compound 325], the “% Fold Act. (percent maximum fold activation)” value is “B (Fold Activation<200%)” and the “EC1.5 μM” value is reported as “C (EC1.5>25 μM)”.
For `O=C(Nc1nccs1)c1cccc2c(=O)cc(-c3ccccc3OC(F)(F)F)[nH]c12` [Compound 430] the same measures were “A (Fold activation>200%)” and “A (EC1.5<1.0 μM)”.
For `O=C(Nc1cccc2c(=O)n(CCN3CCCC3)c(-c3cccc(C(F)(F)F)c3)nc12)c1cnccn1` [Compound 235], the “% Fold Act. (percent maximum fold activation)” value was “A (Fold activation>200%)” and the “EC1.5 μM” value is listed as “B (EC1.5 1-25 μM)”.
The like results for `Cn1c(-c2cccc(C(F)(F)F)c2)nc2c(NC(=O)c3cccc(CN4CCCC4)n3)cccc2c1=O` [Compound 333] were, in that order, “A (Fold activation>200%)” and “A (EC1.5<1.0 μM)”.
The like results for `Cn1c(-c2cccc(C(F)(F)F)c2)nc2c(C(=O)Nc3ccc(OCC(O)CO)cc3)cccc2c1=O` (stereo not shown) [Compound 273] were, in that order, “A (Fold activation>200%)” and “A (EC1.5<1.0 μM)”.
The like results for `O=C(Nc1cnccn1)c1cccc2c(=O)cc(-c3cccc(OC(F)(F)F)c3)[nH]c12` [Compound 442] were, in that order, “A (Fold activation>200%)” and “A (EC1.5<1.0 μM)”.
In the case of `O=C(Nc1nccs1)c1cccc2c(=O)cc(-c3cccc(C(F)F)c3)[nH]c12` [Compound 431], the “% Fold Act. (percent maximum fold activation)” value is listed as “A (Fold activation>200%)” and the “EC1.5 μM” value is “A (EC1.5<1.0 μM)”.
The like results for `Cn1c(-c2cccc(C(F)(F)F)c2)nc2c(C(=O)Nc3nc(CN4CCCC4)cs3)cccc2c1=O` [Compound 357] were, in that order, “A (Fold activation>200%)” and “A (EC1.5<1.0 μM)”.
For `Cn1c(-c2cccc(C(F)(F)F)c2)nc2c(NC(=O)C3CCCC(=O)N3)cccc2c1=O` (stereo not shown) [Compound 365] the same measures were “A (Fold activation>200%)” and “B (EC1.5 1-25 μM)”.
The like results for `O=C(NC1CCOC1=O)c1cccc2c(=O)cc(-c3cccc(C(F)(F)F)c3)[nH]c12` (stereo not shown) [Compound 413] were, in that order, “B (Fold Activation<200%)” and “B (EC1.5 1-25 μM)”.
As for `O=C(Nc1nccs1)c1cccc2c(=O)cc(-c3cccc(OC(F)F)c3)[nH]c12` [Compound 428], the “% Fold Act. (percent maximum fold activation)” value is listed as “A (Fold activation>200%)” and the “EC1.5 μM” value is “A (EC1.5<1.0 μM)”.
For `O=C(Nc1cccc2c(=O)cc(-c3ccccc3C(F)(F)F)[nH]c12)c1cnccn1` [Compound 445] the same measures were “A (Fold activation>200%)” and “A (EC1.5<1.0 μM)”.
For `O=C(Nc1cccc2c(=O)[nH]c(-c3ccccc3OC(F)F)nc12)c1cnccn1` [Compound 313] the same measures were “A (Fold activation>200%)” and “A (EC1.5<1.0 μM)”.
